Test systems include SK-MEL-2 melanoma; TK-10 renal; NCI-H522 lung; SW-620 colon; SF-295 CNS; SF-539 CNS; MOLT-4 leukemia; K-562 leukemia; IGROV1 ovarian; HS 578T breast.
Common to all, as to experiment: NCI anticancer screen, dose series, 48 h

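How tested: cells in 96-well plates exposed to compound for 48 hours at five concentrations. The concentration for 50% growth inhibition is given as GI50. At the TGI there is no net growth.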

For `[N-]=[N+]=NC(c1cn(C2CC(O)C(CO)O2)c(=O)[nH]c1=O)C(Cl)Br` (centres undefined), the TGI with SK-MEL-2 melanoma, with TK-10 renal, in the experiment on NCI-H522 lung, in the experiment with SW-620 colon, in the experiment with SF-295 CNS and in the experiment on SF-539 CNS was over 100 µM throughout. The TGI in the experiment with MOLT-4 leukemia and in the experiment on K-562 leukemia was over 100 µM each time.

Turning to `O=c1[nH]c(=O)n(C2CC(O)C(CO)O2)cc1Oc1ccccc1` (centres undefined), the TGI with IGROV1 ovarian, in the experiment with HS 578T breast, with TK-10 renal, with NCI-H522 lung, with SF-295 CNS and with MOLT-4 leukemia was over 100 µM throughout. Moreover, in the experiment on K-562 leukemia, the TGI was over 100 µM.

On to `O=C1C2C(C(=O)N1c1ccccc1)C1c3ccccc3C2C2C(=O)N(c3ccccc3)C(=O)C21` (centres undefined), for which the TGI with SK-MEL-2 melanoma is 6.52 µM; in the experiment with IGROV1 ovarian, over 100 µM; in the experiment on TK-10 renal it was over 100 µM; with NCI-H522 lung, 8.07 µM; in the experiment with SW-620 colon, over 100 µM; with SF-295 CNS, 15.5 µM. The TGI with SF-539 CNS was 31.4 µM; in the experiment on MOLT-4 leukemia it was over 100 µM; in the experiment with K-562 leukemia, over 100 µM.

As to `Cc1cc(N(CCC#N)S(=O)(=O)c2ccccc2)ccc1/C=C1\N=C(c2ccc(Cl)cc2)OC1=O`, the TGI in the experiment with SK-MEL-2 melanoma, in the experiment on IGROV1 ovarian, in the experiment with SW-620 colon, in the experiment with SF-295 CNS, in the experiment on SF-539 CNS and with MOLT-4 leukemia was over 100 µM throughout. For the same compound, the TGI in the experiment on K-562 leukemia was over 100 µM.

In the case of `COC1C(OC(=O)c2ccc(C)[nH]2)C(O)C(Oc2ccc3c(O)c(NC(=O)c4c[nH]c(C(=O)Nc5c(O)c6ccc(OC7OC(C)(C)C(OC)C(OC(=O)c8ccc(C)[nH]8)C7O)c(C)c6oc5=O)c4C)c(=O)oc3c2C)OC1(C)C` (centres undefined), the TGI is 4.42 µM with SK-MEL-2 melanoma; 3.62 µM in the experiment with IGROV1 ovarian; 37.3 µM in the experiment with TK-10 renal; 45.9 µM with SW-620 colon; over 100 µM in the experiment with SF-295 CNS; 8.47 µM with MOLT-4 leukemia. In the experiment on K-562 leukemia, this compound showed a TGI of over 100 µM.

Regarding `O=C(/C=C(\O)C(=O)O)/C=C(\O)c1ccccc1`, the GI50 was over 1 µM with SK-MEL-2 melanoma; over 1 µM in the experiment with IGROV1 ovarian; over 1 µM with TK-10 renal; over 1 µM with NCI-H522 lung; under 1 µM in the experiment with SF-539 CNS; over 1 µM in the experiment with MOLT-4 leukemia. In the experiment on K-562 leukemia, the GI50 was over 1 µM. Further, the TGI in the experiment with SK-MEL-2 melanoma was over 100 µM; with IGROV1 ovarian it was over 100 µM; in the experiment with TK-10 renal it was over 100 µM; in the experiment on NCI-H522 lung, over 1 µM; in the experiment with SW-620 colon, over 100 µM; in the experiment with SF-295 CNS it was over 100 µM. The TGI is over 1 µM in the experiment on SF-539 CNS, over 100 µM in the experiment with MOLT-4 leukemia and over 100 µM with K-562 leukemia.

As for `C=CC(=O)N1C/C(=C\c2ccc(Cl)c(Cl)c2)C(=O)/C(=C/c2ccc(Cl)c(Cl)c2)C1`, the TGI worked out at 1.43 µM in the experiment on SK-MEL-2 melanoma; 0.263 µM in the experiment with IGROV1 ovarian; 2.57 µM in the experiment on TK-10 renal; 0.302 µM in the experiment on NCI-H522 lung; 0.262 µM in the experiment on SW-620 colon; 0.891 µM in the experiment with SF-295 CNS. The TGI amounted to 0.367 µM with SF-539 CNS, 0.38 µM in the experiment with MOLT-4 leukemia and 0.28 µM in the experiment on K-562 leukemia.

Consider `O=c1cc(-c2ccccn2)[nH]c2cccc(F)c12`, for which the TGI in the experiment with IGROV1 ovarian, in the experiment with TK-10 renal, in the experiment with NCI-H522 lung, in the experiment on SW-620 colon, in the experiment on SF-295 CNS and in the experiment with SF-539 CNS was over 100 µM each time. For the same compound, the TGI in the experiment on MOLT-4 leukemia and in the experiment on K-562 leukemia was over 100 µM throughout.

Regarding `COc1cc(CNc2nc3c(N)cc(C(F)(F)F)cc3nc2-c2ccccc2)cc(OC)c1OC`, the TGI in the experiment with SK-MEL-2 melanoma is over 100 µM; in the experiment on IGROV1 ovarian, over 100 µM; with TK-10 renal, over 100 µM; in the experiment with NCI-H522 lung it was 78.5 µM; in the experiment with SW-620 colon it was over 100 µM; with SF-295 CNS, over 100 µM. In addition, the TGI in the experiment on SF-539 CNS, in the experiment with MOLT-4 leukemia and in the experiment on K-562 leukemia was over 100 µM throughout. The GI50 in the experiment with IGROV1 ovarian, in the experiment with TK-10 renal, in the experiment with SF-539 CNS and in the experiment with MOLT-4 leukemia was over 100 µM throughout.

With `CCO/C=C1\N=C(c2ccc(Cl)c(Cl)c2)OC1=O`, the TGI in the experiment on SK-MEL-2 melanoma, in the experiment on IGROV1 ovarian, in the experiment on TK-10 renal, with NCI-H522 lung, in the experiment with SW-620 colon and in the experiment on SF-295 CNS was over 100 µM throughout. Further, the TGI in the experiment with SF-539 CNS, with MOLT-4 leukemia and in the experiment with K-562 leukemia was over 100 µM throughout.

On to `Cc1cc2c(c(C(N)=O)c1C)-c1cccc(F)c1C2=O`, for which the TGI with SK-MEL-2 melanoma, in the experiment with IGROV1 ovarian, in the experiment with TK-10 renal, with NCI-H522 lung, with SW-620 colon and in the experiment with SF-295 CNS was over 100 µM each time. The TGI with SF-539 CNS, with MOLT-4 leukemia and with K-562 leukemia was over 100 µM throughout.

Regarding `Cc1ccc(/C=C/c2c(C(=O)/C=C/c3ccccc3)c(C)nc3ccccc23)cc1`, the GI50 in the experiment on IGROV1 ovarian was 1.41 µM; in the experiment on NCI-H522 lung it was 1.4 µM; with SW-620 colon, 1.58 µM; in the experiment on SF-295 CNS, 2.2 µM; in the experiment with SF-539 CNS, 1.74 µM; with MOLT-4 leukemia it was 0.708 µM. The GI50 with K-562 leukemia is 1.73 µM. The TGI in the experiment on IGROV1 ovarian turned out to be 4.48 µM; in the experiment with NCI-H522 lung, 3.29 µM; in the experiment on SW-620 colon, 4.61 µM; with SF-295 CNS it was 5.02 µM; in the experiment on SF-539 CNS it was 3.19 µM; with MOLT-4 leukemia, 4.29 µM. Further, in the experiment with K-562 leukemia, the TGI came out at 5.38 µM.

Regarding `CCOC(=O)NC(=O)c1cn(CCN2CCN(C(=O)CNC(=O)CNC(=O)Cn3cc(C(=O)NC(=O)OCC)c(=O)[nH]c3=O)CC2)c(=O)[nH]c1=O`, the TGI in the experiment with SK-MEL-2 melanoma, in the experiment on TK-10 renal, in the experiment with NCI-H522 lung, in the experiment with SW-620 colon, in the experiment on SF-295 CNS and in the experiment with SF-539 CNS was over 100 µM each time. Besides, the TGI in the experiment on MOLT-4 leukemia and in the experiment on K-562 leukemia was over 100 µM in each case.

(Values after PubChem BioAssay (NCI).)
